These are literature values, as cited in article PMC6344942 (SLAS discovery : advancing life sciences R & D, 2017).

Where two headings read alike, the source gives them in different places.

The term IC50 denotes the concentration at which inhibition is half-maximal.

The series has as its target Ubc9 (Homo sapiens, UniProt P63279).

Ubc9, sequence (P63279 whole entry): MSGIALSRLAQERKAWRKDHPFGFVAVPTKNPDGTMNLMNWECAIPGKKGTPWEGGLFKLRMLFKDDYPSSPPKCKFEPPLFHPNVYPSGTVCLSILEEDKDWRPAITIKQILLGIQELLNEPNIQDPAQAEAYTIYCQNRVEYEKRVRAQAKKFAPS

As for `COC(=CC(=O)O)C1c2cc3ccc(-c4ccc5cc6c(c(O)c5c4O)C(=O)CC(C)(O)C6C(=CC(=O)O)OC)c(O)c3c(O)c2C(=O)CC1(C)O` (centres unmarked) [spectomycin B1], for the setting “Ubc9 inhibitor”, the IC50 is 4.4 µM.

`O=c1cc(-c2ccc(O)c(O)c2O)oc2ccccc12` [Compound 2-D08, 2-D08]: where the note is “prevents transfer of SUMO from Ubc9~SUMO thioester to substrate”, the IC50 was 6 µM.
